Where a SMILES comes first, the peptide text is derived from it. Bridges are numbered along the chain shown (N, C = ends). [ ]: non-standard residue; d: D form. The star is where a group is joined. Phe(4-Cl) = N[C@@H](Cc1ccc(Cl)cc1)C(=O)O; 2Nal = N[C@@H](Cc1ccc2ccccc2c1)C(=O)O; Cit = NC(=O)NCCC[C@H](N)C(=O)O; Agmatine = N=C(N)NCCCCN*; Nle = CCCC[C@H](N)C(=O)O; Orn = NCCC[C@H](N)C(=O)O; Abu = CC[C@H](N)C(=O)O; PhAc = O=C(Cc1ccccc1)*
How the values were obtained:
[1] = target: T1, rat pituitary GH-RH receptors (Rattus norvegicus, UniProt Q02644); experiment: GH-RH radioreceptor binding assay, competition with labelled [His1,Nle27]hGH-RH(1-32)NH2; settings: rat anterior pituitary membrane homogenates; read-out: Ki values, K
T1 construct: from tissue; host or cells: anterior pituitary of male Sprague-Dawley rats, crude membranes
T1 sequence (Q02644 23-464): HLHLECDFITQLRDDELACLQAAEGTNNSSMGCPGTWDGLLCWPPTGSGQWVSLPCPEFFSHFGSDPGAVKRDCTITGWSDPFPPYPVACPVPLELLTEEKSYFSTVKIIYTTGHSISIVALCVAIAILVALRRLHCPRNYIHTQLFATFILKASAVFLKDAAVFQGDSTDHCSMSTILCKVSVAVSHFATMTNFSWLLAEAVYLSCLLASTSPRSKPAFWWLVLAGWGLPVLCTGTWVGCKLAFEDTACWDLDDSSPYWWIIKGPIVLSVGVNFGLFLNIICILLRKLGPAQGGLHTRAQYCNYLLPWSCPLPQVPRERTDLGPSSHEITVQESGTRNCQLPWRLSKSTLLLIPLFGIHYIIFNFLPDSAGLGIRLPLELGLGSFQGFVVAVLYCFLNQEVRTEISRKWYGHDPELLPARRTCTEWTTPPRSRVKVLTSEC
Method: GH-RH Binding Assay. A sensitive radioreceptor binding assay was developed to determine the binding characteristics of the antagonists of GH-RH (G. Halmos, A. V. Schally et al., Receptor 3, 87-97, 1993), hereby incorporated by reference. The assay is based on binding of labelled [His^1, Nle^27 ]hGH-RH(1-32)NH2 to rat anterior pituitary membrane homogenates. Iodinated derivatives of [His^1, Nle^27 ]hGH-RH(1-32)NH2 are prepared by the chloramine-T method (F. C. Greenwood et al., Biochemistry 89:114-123, 1963), hereby incorporated by reference. Pituitaries from male Sprague-Dawley rats (250-300 g) are used to prepare crude membranes. For saturation binding analyses, membrane homogenates are incubated with at least 6 concentrations of [His^1,125I-Tyr^10,Nle^27 ]hGH-RH(1-32)NH2, ranging from 0.005 to 0.35 nM in the presence or absence of excess unlabelled peptide (1 μM).
The pellet is counted for radioactivity in a γ-counter. The affinities of the antagonist peptides tested to rat pituitary GH-RH receptors are determined in competitive binding experiments. The final binding affinities are estimated by Ki (dissociation constant of the inhibitor-receptor complex) and are determined by the Ligand PC computer program of Munson and Rodbard as modified by McPherson. Relative affinities compared to [Ac-Tyr^1, D-Arg^2 ]hGH-RH(1-29)NH2, the Standard antagonist, are calculated as the ratio of Ki of the tested GH-RH antagonist to the Ki of the Standard antagonist.

[2] = system: GH release induced by 1 nM hGH-RH(1-29)NH2 in superfused rat pituitary cells; experiment: Inhibition of hGH-RH(1-29)NH2-induced GH release in superfused rat pituitary system; assay type: cell-based; settings: 30 nM peptide; for Inhibition of GH release (%) 0 min: 0 min response; for Inhibition of GH release (%) 30 min: 30 min response; for Inhibition of GH release (%) 60 min: 60 min response; for Inhibition of GH release (%) 90 min: 90 min response; for Inhibition of GH release (%) 120 min: 120 min response
Method: Superfused Rat Pituitary System. The analogues were tested in vitro in a test described earlier (S. Vigh and A. V. Schally, Peptides 5:241-[…], 1984) with modification (Z. Rekasi and A. V. Schally, P. N. A. S. 90:2146-2149, 1993).
Briefly, the cells are preincubated with peptides for 9 minutes (3 mL) at various concentrations. Immediately after the incubation, 1 nM hGH-RH(1-29)NH2 is administered for 3 minutes (1 mL) [0 minute response]. To check the duration of the antagonistic effect of the analogue, 1 nM hGH-RH(1-29)NH2 is applied 30, 60, 90, and 120 minutes later for 3 minutes [30, 60, 90, 120 min responses]. Net integral values of the GH responses are evaluated. GH responses are compared to and expressed as percent of the original GH response induced by 1 nM GH-RH(1-29)NH2. The effect of the new antagonists are compared to that of [Ac-Tyr^1,D-Arg^2 ]hGH-RH(1-29)NH2, the "Standard antagonist".
Growth Hormone Radio-immunoassay. Rat GH levels in aliquots of undiluted and diluted superfusion samples were measured by double-antibody radioimmunoassay using materials supplied by the National Hormone and Pituitary Program, Baltimore, Md. The results of RIA were analyzed with a computer program developed in our institute (V. Csernus and A. V. Schally, Harwood Academic (Greenstein, B. C. ed., London, pp. 71-109, 1991), hereby incorporated by reference. Inter-assay variation was less than 15% and intra-assay variation was less than 10%.

Row | Ki [1] [nM] | Molecule | Inhibition of GH release (%) 0 min [2] [%] | Inhibition of GH release (%) 30 min [2] [%] | Inhibition of GH release (%) 60 min [2] [%] | Inhibition of GH release (%) 90 min [2] [%] | Inhibition of GH release (%) 120 min [2] [%]
1 | 0.301 ± 0.14 | CCCC[C@H](NC(=O)[C@@H](NC(=O)[C@H](CC(=O)O)NC(=O)[C@H](CCC(N)=O)NC(=O)[C@H](CC(C)C)NC(=O)[C@H](CC(C)C)NC(=O)[C@H](CCCCN)NC(=O)[C@H](CCCNC(=N)N)NC(=O)[C@H](C)NC(=O)[C@H](CO)NC(=O)[C@H](CC(C)C)NC(=O)[C@H](CCC(N)=O)NC(=O)[C@H](CC)NC(=O)[C@H](CC(C)C)NC(=O)[C@@H](NC(=O)[C@H](CCCCN)NC(=O)[C@H](CCCNC(=N)N)NC(=O)[C@H](Cc1ccc(O)cc1)NC(=O)[C@H](CO)NC(=O)[C@H](CC)NC(=O)[C@@H](NC(=O)[C@H](Cc1ccc(Cl)cc1)NC(=O)[C@@H](NC(=O)[C@H](C)NC(=O)[C@H](CC(=O)O)NC(=O)[C@@H](CCCNC(=N)N)NC(=O)[C@H](Cc1ccc(O)cc1)NC(=O)Cc1ccccc1)[C@@H](C)CC)[C@@H](C)O)C(C)C)[C@@H](C)CC)C(=O)N[C@@H](CO)C(=O)N[C@@H](CCCNC(N)=O)C(N)=O [Peptide 3, [PhAc^0,D-Arg^2,Phe(pCl)^6,Abu^8,15,Nle^27,Cit^29]hGH-RH(1-29)-NH2] (PhAc-Y[dR]DAI[Phe(4-Cl)]T[Abu]SYRKVL[Abu]QLSARKLLQDI[Nle]S[Cit]-NH2) |  |  |  |  | 
2 | 0.096 | CCCC[C@H](NC(=O)[C@@H](NC(=O)[C@H](CC(=O)O)NC(=O)[C@H](CCC(N)=O)NC(=O)[C@H](CC(C)C)NC(=O)[C@H](CC(C)C)NC(=O)[C@H](CCCCN)NC(=O)[C@H](CCCNC(=N)N)NC(=O)[C@H](C)NC(=O)[C@H](CO)NC(=O)[C@H](CC(C)C)NC(=O)[C@H](CCC(N)=O)NC(=O)[C@H](C)NC(=O)[C@H](CC(C)C)NC(=O)[C@@H](NC(=O)[C@H](CCCCN)NC(=O)[C@H](CCCNC(=N)N)NC(=O)[C@H](Cc1ccc(O)cc1)NC(=O)[C@H](CO)NC(=O)[C@H](CC(N)=O)NC(=O)[C@@H](NC(=O)[C@H](Cc1ccc(Cl)cc1)NC(=O)[C@@H](NC(=O)[C@H](C)NC(=O)[C@H](CC(=O)O)NC(=O)[C@@H](CCCNC(=N)N)NC(=O)[C@H](Cc1ccc(O)cc1)NC(=O)Cc1ccccc1)[C@@H](C)CC)[C@@H](C)O)C(C)C)[C@@H](C)CC)C(=O)N[C@@H](CC(=O)O)C(=O)NCCCCNC(=N)N [Peptide 5, [PhAc^0,D-Arg^2,Phe(pCl)^6,Ala^15,Nle^27,Asp^28]hGH-RH(1-28)Agm] (PhAc-Y[dR]DAI[Phe(4-Cl)]TNSYRKVLAQLSARKLLQDI[Nle]D-Agmatine) |  |  |  |  | 
3 | 0.0159 ± 0.01 | CCCC[C@H](NC(=O)[C@@H](NC(=O)[C@H](CC(=O)O)NC(=O)[C@H](CCC(N)=O)NC(=O)[C@H](CC(C)C)NC(=O)[C@H](CC(C)C)NC(=O)[C@H](CCCCN)NC(=O)[C@H](CCCNC(=N)N)NC(=O)[C@H](C)NC(=O)[C@H](CO)NC(=O)[C@H](CC(C)C)NC(=O)[C@H](CCC(N)=O)NC(=O)[C@H](CC)NC(=O)[C@H](CC(C)C)NC(=O)[C@@H](NC(=O)[C@H](CCCCN)NC(=O)[C@H](CCCNC(=N)N)NC(=O)[C@H](Cc1ccc(O)cc1)NC(=O)[C@H](CO)NC(=O)[C@H](CC(N)=O)NC(=O)[C@@H](NC(=O)[C@H](Cc1ccc(Cl)cc1)NC(=O)[C@@H](NC(=O)[C@H](C)NC(=O)[C@H](CC(=O)O)NC(=O)[C@@H](CCCNC(=N)N)NC(=O)[C@H](Cc1ccc(O)cc1)NC(=O)Cc1ccccc1)[C@@H](C)CC)[C@@H](C)O)C(C)C)[C@@H](C)CC)C(=O)N[C@@H](CO)C(=O)NCCCCNC(=N)N [Peptide 8, [PhAc^0,D-Arg^2,Phe(pCl)^6,Abu^15,Nle^27]hGH-RH(1-28)Agm] (PhAc-Y[dR]DAI[Phe(4-Cl)]TNSYRKVL[Abu]QLSARKLLQDI[Nle]S-Agmatine) |  |  |  |  | 

Further lines, the molecule ahead of its results:

Row | Molecule | Ki [1] [nM] | Inhibition of GH release (%) 0 min [2] [%] | Inhibition of GH release (%) 30 min [2] [%] | Inhibition of GH release (%) 60 min [2] [%] | Inhibition of GH release (%) 90 min [2] [%] | Inhibition of GH release (%) 120 min [2] [%]
4 | CCCC[C@H](NC(=O)[C@@H](NC(=O)[C@H](CC(=O)O)NC(=O)[C@H](CCC(N)=O)NC(=O)[C@H](CC(C)C)NC(=O)[C@H](CC(C)C)NC(=O)[C@H](CCCCN)NC(=O)[C@H](CCCNC(=N)N)NC(=O)[C@H](C)NC(=O)[C@H](CO)NC(=O)[C@H](CC(C)C)NC(=O)[C@H](CCC(N)=O)NC(=O)[C@H](C)NC(=O)[C@H](CC(C)C)NC(=O)[C@@H](NC(=O)[C@H](CCCCN)NC(=O)[C@H](CCCNC(=N)N)NC(=O)[C@H](Cc1ccc(O)cc1)NC(=O)[C@H](CO)NC(=O)[C@H](CC)NC(=O)[C@@H](NC(=O)[C@H](Cc1ccc2ccccc2c1)NC(=O)[C@@H](NC(=O)[C@H](C)NC(=O)[C@H](CC(=O)O)NC(=O)[C@@H](CCCNC(=N)N)NC(=O)[C@H](Cc1ccc(O)cc1)NC(=O)Cc1ccccc1)[C@@H](C)CC)[C@@H](C)O)C(C)C)[C@@H](C)CC)C(=O)N[C@@H](CC)C(=O)N[C@@H](CCCNC(=N)N)C(N)=O [Peptide 12, [PhAc^0,D-Arg^2,Nal^6,Abu^8,28,Ala^15,Nle^27]hGH-RH(1-29)NH2] (PhAc-Y[dR]DAI[2Nal]T[Abu]SYRKVLAQLSARKLLQDI[Nle][Abu]R-NH2) |  | 87.0 | 61.0 | 37.0 | 34.0 | 41.0
5 | CCCC[C@@H]1NC(=O)[C@H]([C@@H](C)CC)NC(=O)[C@H](NC(=O)[C@H](CCC(N)=O)NC(=O)[C@H](CC(C)C)NC(=O)[C@H](CC(C)C)NC(=O)[C@H](CCCCN)NC(=O)[C@H](CCCNC(=N)N)NC(=O)[C@H](C)NC(=O)[C@H](CO)NC(=O)[C@H](CC(C)C)NC(=O)[C@H](CCC(N)=O)NC(=O)[C@H](C)NC(=O)[C@H](CC(C)C)NC(=O)[C@@H](NC(=O)[C@H](CCCCN)NC(=O)[C@H](CCCNC(=N)N)NC(=O)[C@H](Cc2ccc(O)cc2)NC(=O)[C@H](CO)NC(=O)[C@H](CC)NC(=O)[C@@H](NC(=O)[C@H](Cc2ccc3ccccc3c2)NC(=O)[C@@H](NC(=O)[C@H](C)NC(=O)[C@H](CC(=O)O)NC(=O)[C@@H](CCCNC(=N)N)NC(=O)[C@H](Cc2ccc(O)cc2)NC(=O)Cc2ccccc2)[C@@H](C)CC)[C@@H](C)O)C(C)C)CC(=O)NCCC[C@@H](C(N)=O)NC(=O)[C@H](CO)NC1=O [Peptide 20, cyclo^25,29 [PhAc^0,D-Arg^2,Nal^6,Abu^8,Ala^15,D-Asp^25,Nle^27,Orn^29]hGH-RH(1-29)NH2] (PhAc-Y[dR]DAI[2Nal]T[Abu]SYRKVLAQLSARKLLQ[dD]I[Nle]S[Orn]-NH2; lactam 25-29) |  | 11.0 | 0.0 | 0.0 | 13.0 | 
6 | [PhAc^0,Tyr(Me),D-Arg^2,Phe(pCl)^6,Ala^15,Nle^27 ]hGH-RH(1-29)-NH2 [Peptide 10] |  | 84.8 | 35.2 | 38.2 | 29.8 | 33.8

Reference: patent US5942489A, “HGH-RH(1-29)NH2 analogues having antagonistic activity” (The Administrators of the Tulane Educational Fund, priority 1996, dated 1999)
